Test results published in patent US20240158446A1, “CYCLIC COMPOUND HAVING SELECTIVE INHIBITORY ACTION ON KRAS OVER HRAS AND NRAS” (CHUGAI SEIYAKU KABUSHIKI KAISHA, priority 2021, published 2024).
Like-named read-outs stand apart in the source and are kept apart here. Where a SMILES comes first, the peptide text is derived from it. Bridges are numbered along the chain shown (N, C = ends). [ ]: non-standard residue; d: D form. The star is where a group is joined. hPhe(3,5-F2-4-CF3) = N[C@@H](CCc1cc(F)c(C(F)(F)F)c(F)c1)C(=O)O; hPhe(3-Cl-4-CF3) = N[C@@H](CCc1ccc(C(F)(F)F)c(Cl)c1)C(=O)O; NPrPhe(4-CF3) = CCCN[C@@H](Cc1ccc(C(F)(F)F)cc1)C(=O)O; NMeGly(cPent) = CN[C@H](C(=O)O)C1CCCC1; Pro(4,4-F2) = O=C(O)[C@@H]1CC(F)(F)CN1; NMeD = CN[C@@H](CC(=O)O)C(=O)O; NMeL = CN[C@@H](CC(C)C)C(=O)O; αMeL = CC(C)C[C@](C)(N)C(=O)O; Morpholide = C1CN(*)CCO1; Ac5c = NC1(C(=O)O)CCCC1; Aze = O=C(O)[C@@H]1CCN1; Sar = CNCC(=O)O

What was measured:
[1] = target: GDP-bound NRAS wild-type protein (Homo sapiens, UniProt P01111); experiment: Binding to NRAS by surface plasmon resonance (SPR), Single Cycle Kinetics; settings: for NRAS/KRAS (ratio of KD value with respect to GDP-bound NRAS wild-type protein to KD value with respect to KRAS): SPR KD ratio NRAS/KRAS, class symbols
Chain of GDP-bound NRAS wild-type protein (P01111 whole entry): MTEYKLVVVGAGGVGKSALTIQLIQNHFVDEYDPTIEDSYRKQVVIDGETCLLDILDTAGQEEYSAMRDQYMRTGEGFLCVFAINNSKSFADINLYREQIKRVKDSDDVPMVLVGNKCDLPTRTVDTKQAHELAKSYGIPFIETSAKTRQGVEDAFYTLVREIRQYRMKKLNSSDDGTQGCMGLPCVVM

[2] = test system: human lung cancer strain NCI-H441;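 also: cell proliferation inhibition after four days measured by CellTiter-Glo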
[3] = target: GDP-bound HRAS wild-type protein (Homo sapiens, UniProt P01112); experiment: Binding to HRAS by surface plasmon resonance (SPR), Single Cycle Kinetics; settings: for HRAS/KRAS (ratio of KD value with respect to GDP-bound HRAS wild-type protein to KD value with respect to KRAS): SPR KD ratio HRAS/KRAS, class symbols
Chain of GDP-bound HRAS wild-type protein (P01112 whole entry): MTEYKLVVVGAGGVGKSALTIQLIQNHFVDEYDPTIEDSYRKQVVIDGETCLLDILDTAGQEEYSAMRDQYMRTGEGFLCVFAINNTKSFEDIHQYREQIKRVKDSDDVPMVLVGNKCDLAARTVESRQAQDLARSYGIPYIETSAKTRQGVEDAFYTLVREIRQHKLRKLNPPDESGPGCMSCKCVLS

[4] = SPR, GDP-bound NRAS wild-type protein vs GDP-bound KRAS wild-type protein
[5] = SPR, GDP-bound HRAS wild-type protein vs GDP-bound KRAS wild-type protein

| Compound | NRAS/KRAS (ratio of KD value with respect to GDP-bound NRAS wild-type protein to KD value with respect to KRAS) [1] | IC50 ([2]; read-out: NCI-H441 IC50, NCI-H441 cells, four days, CellTiter-Glo) | HRAS/KRAS (ratio of KD value with respect to GDP-bound HRAS wild-type protein to KD value with respect to KRAS) [3] | NRAS/KRAS (ratio of KD value with respect to NRAS to KD value with respect to KRAS) [1, 4] | IC50 [2] | HRAS/KRAS (ratio of KD value with respect to HRAS to KD value with respect to KRAS) [3, 5] | NRAS/KRAS (ratio of KD value for NRAS to KD value for KRAS) [1, 4] | HRAS/KRAS (ratio of KD value for HRAS to KD value for KRAS) [3, 5] |
| --- | --- | --- | --- | --- | --- | --- | --- | --- |
| CCO[C@@H]1C[C@H]2C(=O)NC3(CC(C)(C)C3)C(=O)N(C)[C@@H](C3CCCC3)C(=O)N(C)[C@H](C(=O)N(C)C)CC(=O)N(C)[C@@H](CC(C)C)C(=O)N[C@@H]([C@@H](C)CC)C(=O)N(C)CC(=O)N(C)[C@H]3C/C=C\CCN(C3=O)[C@@H](Cc3ccc(C)c(F)c3)C(=O)N(C)CC(=O)N[C@@H](CCc3ccc(C(F)(F)F)c(OC)c3)C(=O)N2C1 [PP2689] | A (a compound having 10 or more and less than 20 is denoted as A) | 6.2 nM | B (a compound having 3 or more and less than 10 is denoted as B) |  |  |  |  |  |
| CCCN1C(=O)CN(C)C(=O)[C@@H]2CCN2C(=O)[C@H]([C@@H](C)CC)NC(=O)[C@H](CC(C)C)N(C)C(=O)C[C@@H](C(=O)N(C)C)N(C)C(=O)[C@H](C2CCCC2)N(C)C(=O)C2(CCCC2)NC(=O)[C@@H]2CC(F)(F)CN2C(=O)[C@H](CCc2ccc(C(F)(F)F)c(Cl)c2)NC(=O)CN(C)C(=O)[C@@H]1Cc1ccc(C(F)(F)F)cc1 [PP0431] ([NMeL]I[Aze][Sar][NPrPhe(4-CF3)][Sar][hPhe(3-Cl-4-CF3)][Pro(4,4-F2)][Ac5c][NMeGly(cPent)][NMeD]-NMe2; lactam N-11) |  |  |  | B (a compound having 3 or more and less than 10 is denoted as B) | 9.9 nM | C (A compound having a KD ratio of 0.1 or more and less than 3 is denoted as C) |  |  |
| CCCN1C(=O)CN(C)C(=O)[C@@H]2CCN2C(=O)[C@H]([C@@H](C)CC)NC(=O)[C@H](CC(C)C)N(C)C(=O)C[C@@H](C(=O)N2CCOCC2)N(C)C(=O)[C@H](C2CCCC2)N(C)C(=O)[C@](C)(CC(C)C)NC(=O)[C@@H]2CCCN2C(=O)[C@H](CCc2cc(F)c(C(F)(F)F)c(F)c2)NC(=O)CN(C)C(=O)[C@@H]1Cc1ccc(C(F)(F)F)cc1 [PP0776] ([NMeL]I[Aze][Sar][NPrPhe(4-CF3)][Sar][hPhe(3,5-F2-4-CF3)]P[αMeL][NMeGly(cPent)][NMeD]-Morpholide; lactam N-11) |  |  |  | B (a compound having 3 or more and less than 10 is denoted as B) | 591 nM | B (a compound having 3 or more and less than 10 is denoted as B) |  |  |
| CCC[C@H]1C(=O)N[C@@H]([C@@H](C)CC)C(=O)N(C)CC(=O)N(C)[C@H]2C/C=C\CCN(C2=O)[C@@H](Cc2ccc(C)cc2)C(=O)N(C)CC(=O)N[C@@H](CCc2ccc3ccn(C)c3c2)C(=O)N2C[C@H](OCC)C[C@H]2C(=O)NC2(CC(C)(C)C2)C(=O)N(C)[C@@H](C(CC)CC)C(=O)N(C)[C@H](C(=O)N(C)C)CC(=O)N1C [PP2914] | AA (a compound having 20 or more is denoted as AA) |  | A (a compound having 10 or more and less than 20 is denoted as A) |  | 311 nM |  |  |  |
| CC[C@H](C)[C@@H]1NC(=O)[C@H](CC(C)C)N(C)C(=O)C[C@@H](C(=O)N2CCOCC2)N(CC)C(=O)[C@H](C2CCCC2)N(C)C(=O)C2(CCC2)NC(=O)[C@@H]2CC(F)(F)CN2C(=O)[C@H](CCc2cc(F)c(C(F)(F)F)c(F)c2)NC(=O)CN(C)C(=O)[C@H](Cc2ccc(C(F)(F)F)cc2)N2CCCCC[C@@H](C2=O)N(C)C(=O)CN(C)C1=O [PP0954] |  |  |  |  | 438 nM |  | A (a compound having 10 or more and less than 20 is denoted as A) | A (a compound having 10 or more and less than 20 is denoted as A) |
